Assay results: paper doi:10.1101/2020.11.06.371534v1 (biorxiv, 2020)
Counter-ions that a name gives are not always drawn. One block for each compound: values may come before it.

How the values were obtained:
[1] = biological target: T1, Porcine pancreatic elastase (PE) (Sus scrofa, UniProt P00772); experiment: chromogenic assay, OD […] nm, non-linear regression; type: biochemical
[2] = biological target: T1, Porcine pancreatic elastase (PE); experiment: microscale thermophoresis, NT-647-NHS labelled enzyme; type: binding
[3] = biological target: T1, Porcine pancreatic elastase (PE); experiment: chromogenic assay, OD […] nm; type: biochemical

T1 sequence (P00772 27-266): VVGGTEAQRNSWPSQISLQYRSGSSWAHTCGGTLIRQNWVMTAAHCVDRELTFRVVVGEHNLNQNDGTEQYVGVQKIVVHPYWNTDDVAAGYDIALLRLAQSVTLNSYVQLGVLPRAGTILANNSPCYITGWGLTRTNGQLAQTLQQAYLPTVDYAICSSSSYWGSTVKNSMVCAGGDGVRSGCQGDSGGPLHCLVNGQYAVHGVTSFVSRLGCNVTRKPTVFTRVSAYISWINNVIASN

- IC50 [1]: 3.53 µM
- Kd [2]: 0.0262 µM
SMILES: O=c1cc(-c2ccccc2)oc2cc(O)c(O)c(O)c12 [Baicalein, 5,6,7-trihydroxy-2-phenylchromen-4-one]

- inhibition at 100 µM ([3]; read-out: % inhibition at 100 μM): 23.6%
SMILES: O=c1c(O)c(-c2ccccc2)oc2cc(O)cc(O)c12 [Galangin, 3,5,7-trihydroxy-2-phenylchromen-4-one]

- inhibition at 125 µM ([3]; read-out: % inhibition at 125 μM): 31.5%
SMILES: COc1ccc([C@@H]2CC(=O)c3c(O)cc(O)cc3O2)cc1O [Hesperetin, (2S)-5,7-dihydroxy-2-(3-hydroxy-4-methoxyphenyl)-2,3-dihydrochromen-4-one]

- IC50 [1]: 15.8 µM
SMILES: CC(C)(C)C(=O)Oc1ccc(S(=O)(=O)Nc2ccccc2C(=O)NCC(=O)O)cc1 [Sivelestat sodium salt hydrate, sodium;2-[[2-[[4-(2,2-dimethylpropanoyloxy)phenyl]sulfonylamino]benzoyl]amino]acetate]
